Patent US11357780B2, “Methods and compositions relating to the inhibition of IP6K1” (THE CHILDREN'S MEDICAL CENTER CORPORATION, priority 2018, dated 2022)
Entries after “also recorded” stand apart in the source; their conditions may differ.

Columns and labels:
[1] = test system: neutrophils and platelets; assay: Ex vivo neutrophil-platelet aggregate (NPA) formation, FACS; type: cell-based, mouse
Description: Neutrophil-platelet aggregation. Mouse and human neutrophils were isolated and purified as previously described (31). Whole blood was collected into ACD tubes and platelet-rich plasma was isolated by centrifuging twice at 100×g for 5 min. Neutrophils (0.5×106) and platelets (5×106) were incubated for 2 h at 37° C. with LPS in 1 ml Tyrode's buffer (Sigma) supplemented with 1% BSA. After incubation, mouse neutrophils and platelets were stained with CD11b, CD41, and Ly6G and analyzed by flow cytometry to detect NPAs. Human neutrophils and platelets were stained with CD66, CD16, and CD41. NPA % was calculated as the percentage of CD66+, CD16+ and CD41 triple-positive cells (NPAs) among all CD66+ and CD16+ cells.
Flow cytometry. Murine neutrophils and platelets were incubated as described above. Cells were then harvested, washed with ice-cold PBS, and stained with APC0-CD11b (eBioscience), PE-CY7-Ly6G (BD Bioscience), FITC-CD41 (eBioscience), and […] to detect leukocyte and platelet antigens. Samples were examined with a FACSCanto II™ flow cytometer (Becton Dickinson). Neutrophils were gated by their forward- and side-scatter characteristics and by their Ly-6G+/CD11b+ (neutrophil) expression pattern (30). Platelets were detected by CD41 staining NPAs were Ly-6G+CD41+. All data were analyzed using FlowJo™ software (TreeStar; FlowJo LLC).

platelets = assay: PolyP levels in platelets isolated from TNP-treated mice; type: in vivo, mouse; settings: platelets from mice treated with TNP 20 mg/kg once a day for 10 days, vs DMSO-treated controls
Description: (§1) FIG. 6A: PolyP levels in platelets. Mice were treated with TNP or DMSO alone for 10 days (20 mg/kg body weight, once a day). The experiment was repeated three times and the data were pooled and analyzed together. Data shown are means±SEM (n=7 mice per group). FIG. 6B: LPS-induced polyP secretion in neutrophil-platelet co-cultures. Neutrophils (5×10^6) isolated from DMSO (N-DMSO) or TNP (N-TNP)-treated mice and platelets (1×10^9) isolated from DMSO (P-DMSO) or TNP (P-TNP)-treated mice were incubated in the presence of LPS (5 μg/mL) for 2 h at 37° C. Data shown are means±SEM of four experiments. FIG. 6C: LPS-induced NPA formation. Neutrophils and platelets were isolated from DMSO (untreated) and TNP-treated mice and incubated with LPS (1 μg/mL) for 2 h at 37° C. […] NPA formation was analyzed at 24 hr after the LPS instillation. […] FIG. 6H: Recruited neutrophils in alveolar spaces were quantified as volume fraction of the alveolar space using standard point-counting morphometry. […] FIG. 6I: Pulmonary edema formation was quantified as the percentage of edema area in the total parenchymal region using. […] FIG. 6J: Lung vascular permeability was evaluated by BALF total protein level. […] FIG. 6K: Lung wet weight-to-dry weight ratio was measured at 24 hr after E. coli instillation. […] NPA % was calculated as the percentage of CD66+, CD16+ and CD41 triple-positive cells (NPAs) among all CD66+ and CD16+ cells. […]

[2] = test system: neutrophil-platelet co-cultures; assay: LPS-induced polyP secretion in neutrophil-platelet co-cultures; type: cell-based, mouse; settings: cells from TNP-treated mice, LPS 5 μg/mL, 2 h, 37° C., vs DMSO-treated controls
Description: as §1

[3] = test system: LPS-induced lung inflammation; assay: LPS-induced lung inflammation in mice; type: in vivo, mouse; settings: TNP-treated mice, 5 mg/kg LPS intratracheal, 24 hr
Description: Bacteria or LPS-induced acute pneumonia. After anesthesia with ketamine hydrochloride (100 mg/kg intraperitoneally (i.p.)) and xylazine (10 mg/kg i.p.), mouse tracheas were surgically exposed and a total volume of 40 μl of saline, a dose of 2×10^6 cfu of E. coli (strain 19138; American Type Culture Collection), a dose of 5×10^8 cfu of Stapyhlococcus aureus (strain 10390; American Type Culture Collection), or the indicated amount of LPS (LPS from E. coli O111:B4 or LPS from E. coli O157:H7; Sigma-Aldrich was instilled intratracheally via an angiocatheter inserted through the trachea and into the left bronchus. Colloidal carbon (1%) was included in the instillate to indicate deposition. […]
Neutrophil accumulation. […] The total number of cells in the BALF was counted by hemocytometry. […] The percentage of neutrophils in the whole population (% PMN) was determined accordingly. Total numbers of neutrophils (#PMN) recruited was calculated as follows: [#PMN]=[cell density]×volume×[% PMN]. Emigrated neutrophils in the alveolar air spaces were also quantified by morphometric analysis of tissue sections. Emigrated neutrophils in lung sections (5 mice/group) 24 h after infection were quantified using standard point-counting morphometry (7). […] At least three grids (300 points) were counted for each lung. […]

E. coli = assay: E. coli-induced bacterial pneumonia in mice; type: in vivo, mouse
Description: Bacteria or LPS-induced acute pneumonia. After anesthesia with ketamine hydrochloride (100 mg/kg intraperitoneally (i.p.)) and xylazine (10 mg/kg i.p.), mouse tracheas were surgically exposed and a total volume of 40 μl of saline, a dose of 2×10^6 cfu of E. coli (strain 19138; American Type Culture Collection), a dose of 5×10^8 cfu of Stapyhlococcus aureus (strain 10390; American Type Culture Collection), or the indicated amount of LPS (LPS from E. coli O111:B4 or LPS from E. coli O157:H7; Sigma-Aldrich was instilled intratracheally via an angiocatheter inserted through the trachea and into the left bronchus. Colloidal carbon (1%) was included in the instillate to indicate deposition. After surgery and wound closure, mice were suspended by their front legs to help deliver the instillate deep into the left lobe before being placed back into the cage with soft and warm bedding for recovery. Mice were euthanized by CO2 at each time point. For polyP treatment, Medium Chain Polyphosphate (p100) (Kerafast Inc) was injected intraperitoneally (50 μg/g body weight) 10 min after the instillation of LPS. For treatment with IP6K1 inhibitor TNP (N2-(m-(trifluoromethyl)benzyl) N6-(p-nitrobenzyl)purine), mice were injected intraperitoneally with TNP once a day (20 mg/kg body weight) for 10 days before the induction of lung inflammation. TNP (Tocris Bioscience) was dissolved in DMSO/Tween80/water (1/1/8) at a concentration of 2 mg/ml and was injected directly without dilution.
Neutrophil accumulation. WT and Ip6k1-KO mice were anesthetized and instilled with bacteria or LPS as described above. After 24 h, mice were euthanized by CO2. The chest cavity was opened and a catheter was tied to the trachea. Bronchoalveolar lavage (BAL) was performed (1 mL PBS/15 mM EDTA×10) in each group. The BAL fluid (BALF) was centrifuged at 450×g for 10 min. The total number of cells in the BALF was counted by hemocytometry. Differential cell counts were conducted on cytospin preparations stained with a modified Wright-Giemsa stain (Volu-Sol, Inc.). Neutrophils were identified by their lobular or segmented nuclei. The percentage of neutrophils in the whole population (% PMN) was determined accordingly. Total numbers of neutrophils (#PMN) recruited was calculated as follows: [#PMN]=[cell density]×volume×[% PMN]. Emigrated neutrophils in the alveolar air spaces were also quantified by morphometric analysis of tissue sections. Emigrated neutrophils in lung sections (5 mice/group) 24 h after infection were quantified using standard point-counting morphometry (7). Briefly, mice were euthanized and their hearts tied off to maintain pulmonary blood volume. Lungs were then excised and fixed by intratracheal instillation of Bouin's solution at a pressure of 23 cm H2O and embedded in paraffin. Five to 6 μm-thick sections were cut and stained with hematoxylin and eosin (H&E). Neutrophils could be easily recognized by their lobular or segmented nuclei under high magnification. A counting grid (10×10, covering 70,000 μm2 of the magnified field) was reflected onto the field of view using a drawing tube. Randomly selected fields of pneumonic peripheral lung largely free of non-capillary blood vessels and bronchioles or larger airways were examined. At least three grids (300 points) were counted for each lung. The relative volumes of the parenchymal regions occupied by emigrated neutrophils were calculated by investigators blinded to the identities of the mice and were expressed as a percentage of the total parenchymal region volume (including both tissue and air spaces).
BALF total protein levels and cytokine/chemokine levels. BALF samples were obtained from mice 24 h after E. coli challenge. BAL was performed with 1 ml cold PBS/15 mM EDTA flushed in and out three times. Protein concentrations were measured in BALF using the Bio-Rad protein assay reagent. A standard curve was constructed using BSA. […]

human platelets = assay: PolyP levels in human platelets; type: cell-based; settings: TNP 20 μM, room temperature, 4 days
[4] = test system: human primary neutrophils and platelets; assay: NPA formation between human neutrophils and platelets; type: cell-based
Description: as §1

[5] = test system: PtdIns(3,4,5)P3 signaling; assay: PtdIns(3,4,5)P3 signaling (phospho-Akt western blot) in mouse neutrophils; type: cell-based
Description: Mice were treated with TNP for 10 days (20 mg/kg body weight, once a day). Bone marrow neutrophils were isolated and lysed. Total/phosphorylated Akt in cell lysates was detected by western blotting. Relative amounts of phosphorylated Akt were quantified with NIH ImageJ™ software. Data shown are means±SEM of four experiments. *p<0.05 vs. neutrophils isolated from mice treated with DMSO alone

[6] = test system: PtdIns(3,4,5)P3 signaling; assay: PtdIns(3,4,5)P3 signaling in human neutrophils; type: cell-based; settings: human neutrophils treated with TNP

In the case of LYS-BK, the “NPA formation between IP6K1-deficient platelets and neutrophils” value ([1]; Lys-BK 1 μM together with HKa) is reported as “could not restore NPA formation”.

With HOE140 the “LPS-induced NPA formation” value ([1]; neutrophils pretreated with HOE140 150 nM for 5 min) was “inhibited”.

For O=[N+]([O-])c1ccc(CNc2nc(NCc3cccc(C(F)(F)F)c3)nc3nc[nH]c23)cc1 [TNP, N2-(m-(trifluoromethyl)benzyl) N6-(p-nitrobenzyl)purine], the “intracellular polyP levels in platelets” value (platelets) was “reduced”, the “LPS-elicited polyP secretion” value [2] was “reduced” and the “LPS-induced ex vivo NPA formation” value ([1]; neutrophils and platelets from TNP-treated mice, LPS 1 μg/mL, 2 h) was “inhibited”. The “infection-induced NPA formation in the lungs of live mice” value [3] was “inhibited”, the “bactericidal activity (bacterial killing in inflamed lungs)” value (E. coli; TNP 20 mg/kg i.p. once a day for 10 days before E. coli instillation) was “much improved” and the edema formation (E. coli; TNP-treated mice) was “less edema formation”. For the same molecule, the “neutrophil accumulation in the inflamed lungs, BALF neutrophil counts” value (E. coli; TNP-treated mice) was “suppressed”, the “neutrophil accumulation in the inflamed lungs, morphometric analysis of lung sections” value (E. coli; TNP-treated mice) was “suppressed” and the “total BALF protein levels” value (E. coli; TNP-treated mice) was “decreased”. For the same molecule, the “pulmonary vascular permeability by lung wet-to-dry ratio” value (E. coli; TNP-treated mice, 24 hr after E. coli instillation) was “reduction”, the “polyP levels in human platelets” value (human platelets) was “reduced” and the NPA formation ([4]; TNP-treated neutrophils and untreated platelets) was “unaltered”. For the same molecule, the “LPS-induced NPA formation” value ([4]; human primary neutrophils and platelets treated with TNP) was “suppressed”, the “PtdIns(3,4,5)P3-mediated cellular functions” value ([5]; mouse neutrophils treated with TNP) was “elevated” and the “PtdIns(3,4,5)P3 signaling, assessed by phospho-Akt” value ([5]; mouse neutrophils, TNP 20 mg/kg once a day for 10 days, bone marrow neutrophils) was “substantially enhanced; also recorded: elevated”. The “PtdIns(3,4,5)P3-mediated cellular functions” value [6] was “elevated” and the “PtdIns(3,4,5)P3 signaling” value [6] was “substantially enhanced”.

B1: MIP2: a common proinflammatory cytokine (protein, UniProt P10889 28-100, looked up)
C-X-C motif chemokine 2: AVVASELRCQCLKTLPRVDFKNIQSLSVTPPGPHCAQTEVIATLKGGQKVCLDPEAPLVQKIIQKILNKGKAN
For B1, the NPA formation ([1]; MIP2 1 nM in place of LPS) was “failed to induce the same NPA formation”.
